According to patent US20040023295A1, “Methods and systems for analyzing complex biological systems” (priority 2001, published 2004):

System: Saccharomyces cerevisiae wild type strain BY4743
Test: Yeast azole drug experiment AF1: metabolite analysis (GC-MS, LC-MS)
Assay type: cell-based

C[C@@H]1[C@H](O)[C@@H](C)/C=C/C=C/C=C/C=C/C=C/C=C/C=C/[C@H](O[C@@H]2O[C@H](C)[C@@H](O)[C@H](N)[C@@H]2O)C[C@@H]2O[C@](O)(C[C@@H](O)C[C@@H](O)[C@H](O)CC[C@@H](O)C[C@@H](O)CC(=O)O[C@H]1C)C[C@H](O)[C@H]2C(=O)O [Amphoteracin B]
Fold Change of metabolite 5hydroxyL-tryptophan (platform nLC, p-Value 1): 0 | Fold Change of metabolite 6-benzylaminopurine (platform nLC, p-Value 1): 0 | Fold Change of metabolite NacetylD-glucosamine (platform nLC, p-Value 1): 0 | Fold Change of metabolite NacetylL-ornithine (platform nLC, p-Value 1): 0 | Fold Change of metabolite abscisic acid (platform nLC, p-Value 1): 0 | Fold Change of metabolite adenine (platform nLC, p-Value 1): 0 | Fold Change of metabolite adenosine (platform nLC, p-Value 1): 0 | Fold Change of metabolite anthranilic acid (platform nLC, p-Value 1): 0 | Fold Change of metabolite argininosuccinate (platform nLC, p-Value 1): 0 | Fold Change of metabolite benzoic acid (platform nLC, p-Value 1): 0 | Fold Change of metabolite catechol (platform nLC, p-Value 1): 0 | Fold Change of metabolite cinnamic acid (platform nLC, p-Value 1): 0 | Fold Change of metabolite citricanoic/itaconi (platform nLC, p-Value 1): 0 | Fold Change of metabolite coumaric acid (platform nLC, p-Value 1): 0 | Fold Change of metabolite cytosine (platform nLC, p-Value 1): 0 | Fold Change of metabolite diaminopimelic acid (platform nLC, p-Value 1): 0 | Fold Change of metabolite dihydrofolic acid (platform nLC, p-Value 1): 0 | Fold Change of metabolite estrone (platform nLC, p-Value 1): 0 | Fold Change of metabolite farnesol (platform nLC, p-Value 1): 0 | Fold Change of metabolite folic acid (platform nLC, p-Value 1): 0 | Fold Change of metabolite gibberellic (platform nLC, p-Value 1): 0 | Fold Change of metabolite guanine (platform nLC, p-Value 1): 0 | Fold Change of metabolite histidine (platform nLC, p-Value 1): 0 | Fold Change of metabolite homogentisic/uric (platform nLC, p-Value 1): 0 | Fold Change of metabolite hydrocortisone (platform nLC, p-Value 1): 0 | Fold Change of metabolite indole3-pyruvic acid (platform nLC, p-Value 1): 0 | Fold Change of metabolite jasmonic acid (platform nLC, p-Value 1): 0 | Fold Change of metabolite luteolin (platform nLC, p-Value 1): 0 | Fold Change of metabolite malonic acid (platform nLC, p-Value 1): 0 | Fold Change of metabolite methionine (platform nLC, p-Value 1): 0 | Fold Change of metabolite phenylpyruvic acid (platform nLC, p-Value 1): 0 | Fold Change of metabolite phosphoenolpyruvate (platform nLC, p-Value 1): 0 | Fold Change of metabolite pinitol (platform nLC, p-Value 1): 0 | Fold Change of metabolite porphobilinogen (platform nLC, p-Value 1): 0 | Fold Change of metabolite retinoic acid (platform nLC, p-Value 1): 0 | Fold Change of metabolite salicylic/HObenzoic (platform nLC, p-Value 1): 0 | Fold Change of metabolite shikimic acid (platform nLC, p-Value 1): 0 | Fold Change of metabolite sinapinic acid (platform nLC, p-Value 1): 0 | Fold Change of metabolite thymine (platform nLC, p-Value 1): 0 | Fold Change of metabolite DL-aminoadipic acid (platform pLC, p-Value 0.229215472): 0.4703 | Fold Change of metabolite mevalonic lactone (platform pLC, p-Value 0.251617022): −0.4606 | Fold Change of metabolite methionine (platform pLC, p-Value 0.367502423): 0.3299 | Fold Change of metabolite NacetylL-ornithine (platform pLC, p-Value 0.392871315): 1.319 | Fold Change of metabolite citrulline (platform pLC, p-Value 0.433366283): 1.798 | Fold Change of metabolite proline (platform pLC, p-Value 0.474762121): 0.6707 | Fold Change of metabolite ornithine (platform pLC, p-Value 0.48461244): 0.5049 | Fold Change of metabolite arginine (platform pLC, p-Value 0.522893347): 0.4662 | Fold Change of metabolite asparagine (platform pLC, p-Value 0.526485859): 0.6344 | Fold Change of metabolite alanine/sarcosine (platform pLC, p-Value 0.540255177): 0.2602 | Fold Change of metabolite pipecolic acid (platform pLC, p-Value 0.556385814): 0.5237 | Fold Change of metabolite glutamate (platform pLC, p-Value 0.563874982): 0.4341 | Fold Change of metabolite phenylalanine (platform pLC, p-Value 0.573569375): 0.4036 | Fold Change of metabolite mannitol (platform pLC, p-Value 0.575742486): 0.4543 | Fold Change of metabolite glutamine/lysine (platform pLC, p-Value 0.618892728): 0.3981 | Fold Change of metabolite aspartic acid (platform pLC, p-Value 0.626001257): 0.3594 | Fold Change of metabolite threonine/homoserin (platform pLC, p-Value 0.668114613): 0.3145 | Fold Change of metabolite serine (platform pLC, p-Value 0.716422123): 0.2011 | Fold Change of metabolite leucine/isoleucine/ (platform pLC, p-Value 0.723852356): 0.2746 | Fold Change of metabolite hypoxanthine (platform pLC, p-Value 0.74082632): 0.2057 | Fold Change of metabolite pyridoxine (platform pLC, p-Value 0.776529987): −0.1684 | Fold Change of metabolite guanosine (platform pLC, p-Value 0.886514477): 0.7598 | Fold Change of metabolite selenoDL-methionine (platform pLC, p-Value 0.888275646): 1.178 | Fold Change of metabolite adenine (platform pLC, p-Value 0.892253251): 0.1153 | Fold Change of metabolite 4ambutyrate/dimglyc (platform pLC, p-Value 0.920009792): 0.01279 | Fold Change of metabolite glutathione (platform pLC, p-Value 0.951676383): −0.03348 | Fold Change of metabolite 4-aminobenzoic acid (platform pLC, p-Value 1): 0 | Fold Change of metabolite 4-methylcatechol (platform pLC, p-Value 1): 0 | Fold Change of metabolite 5hydroxyL-tryptophan (platform pLC, p-Value 1): 0 | Fold Change of metabolite 6benzylaminopurine (platform pLC, p-Value 1): 0 | Fold Change of metabolite NacetylD-glucosamine (platform pLC, p-Value 1): 0 | Fold Change of metabolite NacetylL-glutamate (platform pLC, p-Value 1): 0 | Fold Change of metabolite abscisic acid (platform pLC, p-Value 1): 0 | Fold Change of metabolite adenosine (platform pLC, p-Value 1): 0 | Fold Change of metabolite allantoic acid (platform pLC, p-Value 1): 0 | Fold Change of metabolite anthranilic acid (platform pLC, p-Value 1): 0 | Fold Change of metabolite argininosuccinate (platform pLC, p-Value 1): 0 | Fold Change of metabolite biotin (platform pLC, p-Value 1): 0 | Fold Change of metabolite caffeine (platform pLC, p-Value 1): 0 | Fold Change of metabolite citric acid TME (platform pLC, p-Value 1): 0 | Fold Change of metabolite cytidine (platform pLC, p-Value 1): 0 | Fold Change of metabolite cytosine (platform pLC, p-Value 1): 0 | Fold Change of metabolite diaminopimelic acid (platform pLC, p-Value 1): 0 | Fold Change of metabolite dihydrofolic acid (platform pLC, p-Value 1): 0 | Fold Change of metabolite dipicolinic acid (platform pLC, p-Value 1): 0 | Fold Change of metabolite folic acid (platform pLC, p-Value 1): 0 | Fold Change of metabolite glucosamine (platform pLC, p-Value 1): 0 | Fold Change of metabolite glucosamine6PO4 (platform pLC, p-Value 1): 0 | Fold Change of metabolite histidine (platform pLC, p-Value 1): 0 | Fold Change of metabolite hydrocortisone (platform pLC, p-Value 1): 0 | Fold Change of metabolite itaconic acid dimes (platform pLC, p-Value 1): 0 | Fold Change of metabolite luteolin (platform pLC, p-Value 1): 0 | Fold Change of metabolite niacinamide (platform pLC, p-Value 1): 0 | Fold Change of metabolite nopaline (platform pLC, p-Value 1): 0 | Fold Change of metabolite phosphoenolpyruvate (platform pLC, p-Value 1): 0 | Fold Change of metabolite progesterone (platform pLC, p-Value 1): 0 | Fold Change of metabolite riboflavin (platform pLC, p-Value 1): 0 | Fold Change of metabolite sugar-phosphate (platform pLC, p-Value 1): 0 | Fold Change of metabolite thiamine (platform pLC, p-Value 1): 0 | Fold Change of metabolite thymine (platform pLC, p-Value 1): 0 | Fold Change of metabolite tryptophan (platform pLC, p-Value 1): 0 | Fold Change of metabolite nicotinic acid (platform pLC, p-Value 7.53474E−05): −0.9989
